From article PMC12668310, “High‐Throughput Synthesis and Screening of a Cyanimide Library Identifies Selective Inhibitors of ISG15‐Specific Protease mUSP18” (Angewandte Chemie (International Ed. in English), 2025)
Several values for one entry are separate records, joined by “and”; a condition that tells them apart may be missing. Equal entries are not always repeated. Where two headings read alike, the source gives them in different places.

Experiments:
[1] = target: USP16 (Homo sapiens, UniProt Q9Y5T5); assay: High-throughput screening, Ub-RhoMP, single dose 1.25 µM; type: biochemical; design: (22-823); His-tag (N); made in house; details: for %inhibition USP16: crude in-plate synthesized compound, 1.25 µM assuming full conversion; for BB %inhibition USP16: individual amine building block (plate NCN-5)
Sequence of USP16 (Q9Y5T5 22-823): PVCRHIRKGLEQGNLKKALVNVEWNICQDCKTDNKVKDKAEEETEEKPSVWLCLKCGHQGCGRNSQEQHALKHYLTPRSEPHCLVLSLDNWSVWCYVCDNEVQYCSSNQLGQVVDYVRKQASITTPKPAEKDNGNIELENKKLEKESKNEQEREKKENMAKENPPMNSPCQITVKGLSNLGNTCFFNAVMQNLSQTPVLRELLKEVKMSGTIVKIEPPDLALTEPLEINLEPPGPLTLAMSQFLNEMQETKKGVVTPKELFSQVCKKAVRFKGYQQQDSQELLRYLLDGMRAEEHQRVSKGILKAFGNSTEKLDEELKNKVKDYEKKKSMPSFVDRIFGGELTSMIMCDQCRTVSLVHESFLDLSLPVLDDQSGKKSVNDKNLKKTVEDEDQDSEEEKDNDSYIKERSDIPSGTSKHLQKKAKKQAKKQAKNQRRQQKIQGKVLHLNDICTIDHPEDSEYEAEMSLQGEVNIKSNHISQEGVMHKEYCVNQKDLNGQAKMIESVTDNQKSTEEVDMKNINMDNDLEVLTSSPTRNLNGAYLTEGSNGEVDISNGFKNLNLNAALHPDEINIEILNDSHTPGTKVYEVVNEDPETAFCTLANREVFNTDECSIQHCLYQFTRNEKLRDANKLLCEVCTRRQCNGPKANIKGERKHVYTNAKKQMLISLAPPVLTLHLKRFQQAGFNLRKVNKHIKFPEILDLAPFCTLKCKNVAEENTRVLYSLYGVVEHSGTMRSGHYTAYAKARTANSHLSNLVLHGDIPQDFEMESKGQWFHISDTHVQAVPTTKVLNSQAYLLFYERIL
Procedure: (§1) Since the in‐plate synthesis was conducted in 1536‐well Echo plates, the compounds could readily be transferred from these plates into 1536‐well assay plates using acoustic liquid dispensing (Figure 2a) and subjected to HTS. We screened the whole 7536 compound library against a panel of twelve enzymes, including three DUBs from the UCH family, two DUBs from the OTU family, five DUBs from the USP family, plus ISG15 protease USP18, and SUMO protease SENP1. Each compound was tested at a single dose of 1.25 µM, assuming full conversion (10 mM in DMSO of the formed products) during the in‐plate synthesis, using the fluorogenic assay described above. […] The compounds are sorted by the amine building blocks (BB1‐16), and within each BB, sorted by carboxylic acid (CA1‐471), thereby providing a comprehensive and systematic overview of the overall inhibition by each BB and CA combination. Some interesting patterns can be obtained from this map. […] Indeed, BB10 is the privileged scaffold for UCHL1 as it originates from UCHL1 inhibitor 5 (Figure 1). […] On the other hand, OTUD1 and USP32 show a much higher hit rate, and this is even more pronounced for USP30 and ISG15 protease mUSP18, each showing many active compounds distributed over several BB's.
(§2) Purified recombinant enzymes used in this study
(§3) High-throughput screening
(§4) The screens were performed at room temperature in “flat bottom, non-treated, black […]
(§5) µM. The compounds (10 nL each) were transferred from the 1 mM daughter plates to the […]
(§6) Four wells containing DMSO
(§7) (10 nL) and four wells containing NEM (10 mM final concentration) were used in each plate […]
(§8) solution (1.33x final concentration) was added to each well, followed by incubation for 30 min.
(§9) Next, 2 µL of a substrate solution (4x final concentration) was added to each well (Ub-RhoMP[2]
(§10) After 1h or 2h incubation the
(§11) The percentage inhibition was calculated for each well using the […]
(§12) Where FIx is the fluorescence intensity of each well, FIpos is the average fluorescence intensity of the positive (NEM) control wells, and FIneg is the average fluorescence intensity of the negative (DMSO) control wells.

[2] = target: T1, USP30 (Homo sapiens, UniProt Q70CQ3); assay: as above; type: biochemical; design: USP30 CD (57-517); purchased Ubiquigent 64-0057-050; details: for %inhibition USP30: crude in-plate synthesized compound, 1.25 µM assuming full conversion; for BB %inhibition USP30: individual amine building block (plate NCN-5)
T1 sequence (Q70CQ3 57-517): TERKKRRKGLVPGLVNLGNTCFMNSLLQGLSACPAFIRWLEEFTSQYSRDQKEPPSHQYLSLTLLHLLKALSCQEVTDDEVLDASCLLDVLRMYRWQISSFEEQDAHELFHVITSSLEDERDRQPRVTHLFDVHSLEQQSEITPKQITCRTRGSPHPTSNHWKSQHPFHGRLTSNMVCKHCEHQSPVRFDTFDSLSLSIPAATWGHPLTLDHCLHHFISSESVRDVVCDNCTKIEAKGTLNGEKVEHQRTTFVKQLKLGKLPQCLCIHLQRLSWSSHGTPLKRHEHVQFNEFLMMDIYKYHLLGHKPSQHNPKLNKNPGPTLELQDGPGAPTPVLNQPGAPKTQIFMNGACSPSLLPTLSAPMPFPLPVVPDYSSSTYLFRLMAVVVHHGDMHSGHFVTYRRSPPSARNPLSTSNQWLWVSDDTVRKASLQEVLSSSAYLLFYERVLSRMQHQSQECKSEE
Procedure: as §1, §2, §3, §4, §5, §6, §7, §8, §9, §10, §11, §12

[3] = target: T2, UCHL3 (Homo sapiens, UniProt P15374); assay: as above; type: biochemical; details: for %inhibition UCHL3: crude in-plate synthesized compound, 1.25 µM assuming full conversion; for inhibition at 1.25 µM: individual amine building block (plate NCN-5), read-out: BB %inhibition UCHL3
T2 construct: (1-230); made in house
T2 sequence (P15374 1-230): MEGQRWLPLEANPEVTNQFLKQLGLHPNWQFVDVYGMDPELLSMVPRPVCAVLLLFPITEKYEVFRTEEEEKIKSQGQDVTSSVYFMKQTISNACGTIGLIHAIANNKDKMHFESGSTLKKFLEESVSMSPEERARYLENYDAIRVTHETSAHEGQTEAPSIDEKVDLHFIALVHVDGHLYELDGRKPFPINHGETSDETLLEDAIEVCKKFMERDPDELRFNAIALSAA
Procedure: as §1, §2, §3, §4, §5, §6, §7, §8, §9, §10, §11, §12

[4] = target: T3, OTUD1 (Homo sapiens, UniProt Q5VV17); assay: as above; type: biochemical; details: crude in-plate synthesized compound, 1.25 µM assuming full conversion
T3 sequence (Q5VV17 287-481): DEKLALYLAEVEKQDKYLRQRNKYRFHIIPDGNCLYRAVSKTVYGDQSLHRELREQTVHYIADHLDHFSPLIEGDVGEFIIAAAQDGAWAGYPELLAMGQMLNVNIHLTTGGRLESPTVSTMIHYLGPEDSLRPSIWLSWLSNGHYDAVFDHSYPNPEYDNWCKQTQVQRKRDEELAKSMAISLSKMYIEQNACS
Procedure: as §1, §2, §3, §4, §5, §6, §7, §8, §9, §10, §11, §12

[5] = target: T4, mUSP18 (Mus musculus, UniProt Q9WTV6); assay: High-throughput screening, ISG15ct-RhoMP, single dose 1.25 µM; type: biochemical, murine
T4 construct: (46-368); His-tag (N); made in house
T4 sequence (Q9WTV6 46-368): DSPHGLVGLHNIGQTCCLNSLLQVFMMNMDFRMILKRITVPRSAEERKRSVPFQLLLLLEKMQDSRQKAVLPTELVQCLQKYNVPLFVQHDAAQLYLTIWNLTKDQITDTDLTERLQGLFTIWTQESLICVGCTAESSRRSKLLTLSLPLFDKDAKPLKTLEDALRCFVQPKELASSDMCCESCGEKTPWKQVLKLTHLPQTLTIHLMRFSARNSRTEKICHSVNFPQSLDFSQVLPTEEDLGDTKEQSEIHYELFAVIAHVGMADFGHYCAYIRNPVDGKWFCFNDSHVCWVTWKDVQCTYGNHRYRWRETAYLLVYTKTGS

[6] = target: T5, OTUB2 (Homo sapiens, UniProt Q96DC9); assay: High-throughput screening, Ub-RhoMP, single dose 1.25 µM; type: biochemical; design: (1-234); His6 (cleaved yes); made in house; details: individual amine building block (plate NCN-5); read-out: BB %inhibition OTUB2
T5 sequence (Q96DC9 1-234): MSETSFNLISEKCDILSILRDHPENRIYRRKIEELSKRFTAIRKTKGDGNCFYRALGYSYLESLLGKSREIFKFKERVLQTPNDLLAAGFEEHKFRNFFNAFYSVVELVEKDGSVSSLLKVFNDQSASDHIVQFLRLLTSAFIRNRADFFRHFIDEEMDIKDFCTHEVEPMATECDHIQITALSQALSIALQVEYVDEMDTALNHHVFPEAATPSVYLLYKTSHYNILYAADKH
Procedure: as §1, §2, §3, §4, §5, §6, §7, §8, §9, §10, §11, §12

[7] = crude in-plate synthesized compound, 1.25 µM assuming full conversion, read-out: %inhibition mUSP18
[8] = individual amine building block (plate NCN-5), read-out: BB %inhibition mUSP18

Row | %inhibition USP16 [1] [%] | %inhibition USP30 [2] [%] | %inhibition UCHL3 [3] [%] | %inhibition OTUD1 [4] [%] | inhibition at 1.25 µM [5, 7] [%] | inhibition at 1.25 µM [6] [%] | BB %inhibition USP16 [1] [%] | BB %inhibition USP30 [2] | inhibition at 1.25 µM [3] [%] | inhibition at 1.25 µM [5, 8] [%] | Compound
1 | 11.4 | 54.5 | 19.3 | 7.7 | 27.1 |  |  |  |  |  | N#CN1CC[C@@H](NC(=O)c2nc(N3CCCC3)ncc2Cl)C1 [BB01CA90]
2 | 7.7 | 36.0 | 16.3 | -3.9 | 13.4 |  |  |  |  |  | N#CN1CC[C@@H](NC(=O)C(Cc2c[nH]cn2)NS(=O)(=O)c2ccc(Cl)cc2)C1 (stereo partly shown) [BB01CA91]
3 | 15.0 | 65.3 | 17.1 | -13.5 | 24.6 |  |  |  |  |  | N#CN1CC[C@@H](NC(=O)Cc2csc(-c3cnccn3)n2)C1 [BB01CA92]
4 | 20.5 | 101.1 | 16.3 | 1.5 | 74.1 |  |  |  |  |  | N#CN1CC[C@@H](NC(=O)CCN(Cc2ccccc2)S(=O)(=O)c2c(Cl)cccc2Cl)C1 [BB01CA93]
5 | 11.4 | 73.0 | 16.0 | -11.1 | 24.1 |  |  |  |  |  | N#CN1CC[C@@H](NC(=O)c2ncoc2-c2cccs2)C1 [BB01CA94]
6 |  |  |  |  |  | 3.3 | 7.2 | 5.9% | 5.9 | 6.8 | N#CN1CC[C@@H](N)C1 [BB1]
7 |  |  |  |  |  | 0.9 | 8.1 | 4.8% | 3.9 | 4.3 | N#CN1CCC(N)CC1 [BB2]
8 |  |  |  |  |  | 0.556 | 5.8 | 3.7% | 0.6 | 3.1 | N#CN1CC[C@H](N)C1 [BB3]
9 |  |  |  |  |  | 2.7 | 5.0 | 5.1% | 2 | 3.9 | N#CN1CCC[C@@H](N)C1 [BB4]
10 |  |  |  |  |  | -1.4 | 1.2 | -0.656% | -0.9 | -0.216 | N#CN1CC(N)C1 [BB5]
11 |  |  |  |  |  | -1.5 | 0.3 | -0.126% | -4.7 | -0.535 | N#CN1C[C@H]2C[C@@H](N)C[C@H]2C1 [BB6]
12 |  |  |  |  | 95 |  |  |  |  |  | Cc1cc(C(=O)N[C@H]2C[C@@H]3CN(C#N)C[C@@H]3C2)ccc1Br [BB07CA28]
13 |  |  |  |  |  | -3.8 | -1.2 | -2.3% | -7.4 | -3.9 | N#CN1C[C@H]2C[C@H](N)C[C@H]2C1 [BB7]
14 |  |  |  |  |  | -1.3 | -0.5 | -2.4% | -2.2 | -1.5 | N#CN1CCC[C@H](N)C1 [BB8]
15 |  |  |  |  |  | -2 | -1.3 | ~35% and 31.5% | -2.3 | 2 | N#CN1CC[C@@H](NC(=O)c2ccc(CN)cc2)C1 [BB9]
16 |  |  |  |  |  | -6.8 | -4.8 | -5.7% | -5.7 | -3.8 | N#CN1CC[C@H](CN)C1 [BB11]
17 |  |  |  |  |  | 5.6 | 4.4 | 7.5% | 8 | -0.9 | N#CN1C[C@H](N)[C@@H](O)C1 [BB13]
18 |  |  |  |  |  | -0.269 | -1.1 | -2.2% | 1.4 | -5.8 | N#CN1C[C@@H](F)[C@@H](N)C1 [BB15]
19 |  |  |  |  |  | 0.0345 | -0.846 | 0.9% | 2.3 | -4.3 | N#CN1CCC(n2cc(N)cn2)CC1 [BB16]

Row | Compound | %inhibition USP16 [1] [%] | %inhibition USP30 [2] [%] | %inhibition UCHL3 [3] [%] | %inhibition OTUD1 [4] [%] | inhibition at 1.25 µM [5, 7] [%] | inhibition at 1.25 µM [6] [%] | BB %inhibition USP16 [1] [%] | BB %inhibition USP30 [2] | inhibition at 1.25 µM [3] [%] | inhibition at 1.25 µM [5, 8] [%]
20 | N#CN1CC[C@H](C(=O)Nc2nc3c(s2)CNCC3)C1 [BB10] |  |  |  |  |  | -5.1 | -2.4 | -2.0% | -5.1 | 0.154
21 | N#CN1C[C@@H]2C[C@H]1CN2 [BB12] |  |  |  |  |  | -6 | -5.0 | -3.6% | -4.6 | -0.7
22 | N#CN1CCC2(CCNC2)C1 (stereo not shown) [BB14] |  |  |  |  |  | 6.4 | 5.9 | 3.9% | 8.6 | -1
